System: NCI-H441 cells
Test: 3D cell proliferation assay (CellTiter Glo-3D), NCI-H441
Assay type: cell-based, human
Settings: 3D cell proliferation (CellTiter Glo-3D), medium with 2% FBS, read-out: H441 AP IC50
Excerpt: MIA PaCa-2 cells were purchased from ATCC, Cat. No. CRL-1420; AsPC-1 cells were purchased from ATCC, Cat. No. CRL-1682; NCI-H441 cells were purchased from ATCC, Cat. No. HTB-174: NCI-H1975 cells were purchased from ATCC. Cat. No. CRL-5908; DMEM medium was purchased from Gibco, Cat. No. 11995-065: RPMI-1040 medium was purchased from Gibco. Cat. No. H 18754093; FBS was purchased from Gibco, Cat. No. 10099-141C. penicillin, streptomycin double-antibiotic solution (PS) was purchased from Gibco, Cat. No. 15140-122; Horse serum was purchased from Gibco. Cat. No. 16050130: trypsin (containing EDTA) was purchased from Gibco, Cat. No. 25200-072; DMSO was purchased from VWRAMRESCO, Cat. No. 0231-500ML; 384-well cell culture plates were purchased from Corning, Cat. No. 3830; white-bottomed, opaque 384-well assay plates were purchased from Corning, Cat. No. 3570. CellTiter Glo-3D) kit was purchased from Promega. Cat. No. G9683; cell counter was purchased from CHEMOMETEC, model: NC-200: microplate reader was purchased from PerkinElmer, model: EnVision.
MIA PaCa-2, a human pancreatic cancer cell strain endogenously containing a KRAS^G12C mutation, was cultured in a complete medium containing DMEM+10% FBS+2.5% Horse serum+1% PS. AsPC-1, a human pancreatic cancer cell strain endogenously containing a […] mutation, was cultured in a complete medium containing RPMI-1640+10% FBS+1% PS. NCI-H441 cells, a human lung cancer cell strain endogenously containing a […] mutation, were cultured in a complete medium containing RPMI-1640+10% FBS+1% PS. NCI-H1975, a KRAS wild-type human lung cancer cell strain whose cell proliferation depends on KRAS activity, was cultured in a complete medium containing RPMI-1640+10% FBS+1% PS.
The cells were digested with trypsin (containing EDTA), collected in their respective low-serum complete media containing 2% FBS (for MIA Paca-2 cell culture: DMEM+2% FBS+0.5% Horse serum+1% PS), and counted. After the cell density was adjusted as required, 200 MIA PaCa-2 cells, 800 AsPC-1 cells, 800 NCI-H441 cells, or 400 NCI-H1975 cells per well were seeded into a 384-well cell culture plate, with the volume of the medium in each well being 45 μL. The cell culture plate was incubated in an incubator at 37° C. with 5% CO2, overnight. A series of 3.16-fold gradient dilutions of a 1000× compound stock solution were prepared with DMSO, and then diluted 100-fold with the complete medium containing 2% FBS described above to give 10- compound stock solutions. On the day after cell seeding, 5 μL of the 10- compound stock solution was added to each cell culture well. As a result, the final concentration of the compound in the cell culture well became 1×, and the DMSO content in the well was 0.1%. In addition to the compound-treated wells described above, cell-containing DMSO control wells (with 5 μL of the complete medium containing 1% DMSO added to each well) and cell-free medium control wells (containing 50 μL of the complete medium with 2% FBS) were also set. The culture plate was incubated in an incubator at 37° C. with 5% CO2 for another 5 days, and then 30 μL of CellTiter-Glo working solution was added to each well. The mixture was well mixed, incubated for 30 min, left to stand at room temperature for 30 min, and then transferred to a white-bottomed, opaque 384-well assay plate at 40 μL/well. The chemiluminescence values (RLU) were measured using a microplate reader, and the cell proliferation inhibition rate for each well was calculated: IR (%)=(RLUDMSO—RLUcompound)/(RLUDMSO−RLUblank)×100%, where RLUDMSO is the average RLU signal value from the DMSO control well samples, RLUblank is the average RLU signal value from the medium control well samples, and RLUcompound is the RLU signal value from the compound-treated well samples. […]

CNCCn1c(-c2cc(C#CCN3CCS(=O)(=O)CC3)cnc2[C@H](C)OC)c2c3cc(ccc31)-c1csc(n1)C[C@H](NC(=O)[C@H]1[C@H](C)[C@@H]1C)C(=O)N1CCC[C@H](N1)C(=O)OCC(C)(C)C2 (atropisomer, axis not shown; (Ra)) [Compound Z954, (1r,2R,3S)—N-((6^3S,4S,Z)-1^2-(5-(3-(1,1-dioxidodimorpholino)prop-1-yn-1-yl)-(Ra)-2-((S)-1-methoxyethyl)pyridin-3-yl)-10,10-dimethyl-1^1-(2-(methylamino)ethyl)-5,7-dioxo-6^1,6^2,6^3,6^4,6^5,6^6-hexahydro-1^1H-8-oxa-2-(4,2)-thiazola-1(5,3)-indola-6(1,3)-pyridazinacycloundecaphane-4-yl)-2,3-dimethylcyclopropane-1-carboxamide] and CCn1c(-c2cc(C#CCN3CCN(C(=O)CO)CC3)cnc2C(C)OC)c2c3cc(ccc31)-c1csc(n1)CC(Nc1nnc3cc(C)ccn13)C(=O)N1CCCC(N1)C(=O)OCC(C)(C)C2 [Compound Z982, (6^3S,4S,Z)-1^1-ethyl-1^2-(5-(3-(4-(2-hydroxyacetyl)piperazin-1-yl)prop-1-yn-1-yl)-2-((S)-1-methoxyethyl)pyridin-3-yl)-10,10-dimethyl-4-((7-methyl-[1,2,4]triazolo[4,3-a]pyridin-3-yl)amino)-6^1,6^2,6^3,6^4,6^5,6^6-hexahydro-1^1H-8-oxa-2(4,2)-thiazola-1(5,3)-indola-6(1,3)-pyridazinacycloundecaphane-5,7-dione] are within 1.5-fold of each other in IC50: 2.33 nM for the first, 2.57 nM for the second.

Same assay, conditions: Homo sapiens, NCI-H441, 3D cell proliferation (CellTiter Glo-3D), medium with 2% FBS, read-out: H441 AP IC50

Going from CCn1c(-c2cc(N3CCN(C)CC3)cnc2[C@H](C)OC)c2c3cc(ccc31)-c1csc(n1)C[C@H](Nc1ccon1)C(=O)N1CCC[C@H](N1)C(=O)OCC(C)(C)C2 (atropisomer, axis not shown) [Compound Z459] to CCn1c(-c2cc(N3CCN(C)CC3)cnc2[C@H](C)OC)c2c3cc(ccc31)-c1csc(n1)C[C@H](N(C)C)C(=O)N1CCC[C@H](N1)C(=O)OCC(C)(C)C2 (atropisomer, axis not shown; (Ra)) [Compound Z458], the IC50 rises from 31.4 nM to 168 nM (5.4-fold). The first is the more potent here.

Compared with CCn1c(-c2cc(C#CCN3CCCOCC3)cnc2[C@H](C)OC)c2c3cc(ccc31)-c1csc(n1)C[C@H](Nc1nnc3cc(I)ccn13)C(=O)N1CCC[C@H](N1)C(=O)OCC(C)(C)C2 (atropisomer, axis not shown; (Ra)) [Compound Z970, (6^3S,4S,Z)-1^2-(Ra)-(5-(3-(1,4-oxazepan-4-yl)prop-1-yn-1-yl)-2-((S)-1-methoxyethyl)pyridin-3-yl)-1^1-ethyl-4-((7-iodo-[1,2,4]triazolo[4,3-a]pyridin-3-yl)amino)-10,10-dimethyl-6^1,6^2,6^3,6^4,6^5,6^6-hexahydro-1^1H-8-oxa-2(4,2)-thiazola-1(5,3)-indola-6(1,3)-pyridazinacycloundecaphane-5,7-dione], [2H]C([2H])([2H])O[C@@H](C)c1ncc(N2CCN3CCOC[C@@H]3C2)cc1-c1c2c3cc(ccc3n1CC)-c1csc(n1)C[C@H](NC(=O)[C@H]1[C@H](C)[C@@H]1C)C(=O)N1CCC[C@H](N1)C(=O)OCC(C)(C)C2 (atropisomer, axis not shown; (Sa)) [Compound Z74, (1r,2R,3S)—N-((6^3S,4S,Z)-1^1-ethyl-(Sa)-1^2-(5-((S)-hexahydropyrazino[2,1-c][1,4]oxazin-8(1H)-yl)-2-((S)-1-(methoxy-d3)ethyl)pyridin-3-yl)-10,10-dimethyl-5,7-dioxo-6^1,6^2,6^3,6^4,6^5,6^6-hexahydro-1^1H-8-oxa-2(4,2)-thiazola-1(5,3)-indola-6(1,3)-pyridazinacycloundecaphane-4-yl)-2,3-dimethylcyclopropane-1-carboxamide] is 130-fold higher in IC50: 7.2 nM for the first, 965 nM for the second. The first is the more potent here.

From patent publication US20260234165A1, “MACROCYCLIC COMPOUNDS, PREPARATION METHOD THEREFOR, AND USE THEREOF” (GENFLEET THERAPEUTICS (SHANGHAI) INC., priority 2004, published 2026)
